The values that follow come from patent publication US8541588B2, “Sulfonamide derivatives” (Pfizer Limited, priority 2009, dated 2013).

The structures appear in SMILES notation. Some results are limits rather than exact numbers.

One may read the IC50 as the concentration needed to halve the response being measured.

T1 sequence (Q15858 whole entry): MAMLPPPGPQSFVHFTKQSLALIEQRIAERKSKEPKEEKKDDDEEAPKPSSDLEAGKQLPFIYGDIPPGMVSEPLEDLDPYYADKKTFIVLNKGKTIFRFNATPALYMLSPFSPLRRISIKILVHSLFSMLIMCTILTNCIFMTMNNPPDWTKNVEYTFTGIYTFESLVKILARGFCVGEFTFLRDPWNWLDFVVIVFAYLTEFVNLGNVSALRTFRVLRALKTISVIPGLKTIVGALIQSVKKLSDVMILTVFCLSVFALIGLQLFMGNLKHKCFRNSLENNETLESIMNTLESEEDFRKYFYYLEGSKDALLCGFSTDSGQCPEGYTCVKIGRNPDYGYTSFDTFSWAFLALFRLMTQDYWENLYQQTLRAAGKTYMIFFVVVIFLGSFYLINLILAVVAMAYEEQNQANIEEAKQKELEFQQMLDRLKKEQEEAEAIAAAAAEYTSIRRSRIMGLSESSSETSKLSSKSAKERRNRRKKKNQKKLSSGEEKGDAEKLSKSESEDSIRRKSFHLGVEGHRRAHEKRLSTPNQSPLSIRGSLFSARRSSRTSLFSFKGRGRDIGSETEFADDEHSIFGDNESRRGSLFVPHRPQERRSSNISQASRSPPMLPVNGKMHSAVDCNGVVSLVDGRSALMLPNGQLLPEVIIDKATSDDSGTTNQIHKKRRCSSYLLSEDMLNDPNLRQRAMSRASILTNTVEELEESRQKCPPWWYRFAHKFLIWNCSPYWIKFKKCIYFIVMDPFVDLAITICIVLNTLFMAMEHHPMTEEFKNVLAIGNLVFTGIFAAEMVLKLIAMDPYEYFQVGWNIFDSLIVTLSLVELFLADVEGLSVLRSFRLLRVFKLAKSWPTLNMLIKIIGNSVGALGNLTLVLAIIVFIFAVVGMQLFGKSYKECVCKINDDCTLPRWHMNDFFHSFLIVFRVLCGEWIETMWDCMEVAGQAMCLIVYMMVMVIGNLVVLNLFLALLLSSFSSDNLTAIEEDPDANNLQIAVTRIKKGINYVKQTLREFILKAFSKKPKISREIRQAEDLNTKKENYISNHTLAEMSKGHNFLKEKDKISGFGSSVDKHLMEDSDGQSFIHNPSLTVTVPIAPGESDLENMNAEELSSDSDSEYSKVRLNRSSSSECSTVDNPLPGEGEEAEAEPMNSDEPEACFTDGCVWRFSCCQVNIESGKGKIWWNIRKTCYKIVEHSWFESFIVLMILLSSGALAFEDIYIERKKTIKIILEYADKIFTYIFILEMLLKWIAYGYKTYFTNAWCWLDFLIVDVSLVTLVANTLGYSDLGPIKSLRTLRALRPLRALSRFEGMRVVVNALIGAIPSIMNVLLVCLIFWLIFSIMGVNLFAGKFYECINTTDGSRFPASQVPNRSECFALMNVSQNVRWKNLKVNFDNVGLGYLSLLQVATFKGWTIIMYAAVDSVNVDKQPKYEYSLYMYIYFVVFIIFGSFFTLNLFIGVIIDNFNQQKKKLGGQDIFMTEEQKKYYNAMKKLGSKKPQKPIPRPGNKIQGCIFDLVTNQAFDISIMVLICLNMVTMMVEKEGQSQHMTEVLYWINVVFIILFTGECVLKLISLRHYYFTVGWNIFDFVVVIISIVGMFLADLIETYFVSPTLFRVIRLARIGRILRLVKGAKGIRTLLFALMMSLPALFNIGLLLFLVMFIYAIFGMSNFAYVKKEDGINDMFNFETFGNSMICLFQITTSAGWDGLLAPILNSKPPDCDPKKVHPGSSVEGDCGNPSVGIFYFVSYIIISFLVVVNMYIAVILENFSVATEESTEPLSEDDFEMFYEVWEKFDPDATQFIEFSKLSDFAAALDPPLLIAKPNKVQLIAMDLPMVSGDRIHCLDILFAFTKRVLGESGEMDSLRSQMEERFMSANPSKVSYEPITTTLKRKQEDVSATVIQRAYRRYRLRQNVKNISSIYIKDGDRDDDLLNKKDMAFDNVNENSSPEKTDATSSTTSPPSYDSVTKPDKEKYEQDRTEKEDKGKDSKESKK

The experiment has as its target T1, Nav1.7 (or SCN9A) channel; HEK cells stably transfected with hSCN9A (Homo sapiens, UniProt Q15858).
T1 construct: expressed in transfected cells
Briefly: Nav1.7 block, PatchXpress 7000 automated whole-cell voltage clamp, estimated IC50 (EIC50). The experiment is classed as cell-based. The settings on record: estimated IC50; hSCN9A HEK cells, PatchXpress platform; Examples 815-1040.
For `Cn1nccc1-c1cc(Cl)ccc1Oc1ccc(S(=O)(=O)Nc2ncccn2)cc1Cl` [Example 955, 3-chloro-4-[4-chloro-2-(1-methyl-1H-pyrazol-5-yl)phenoxy]-N-pyrimidin-2-ylbenzenesulfonamide], the IC50 was 76 nM.

Consider `O=S(=O)(Nc1nncs1)c1cc(Cl)c(Oc2ccc(Cl)c(F)c2-c2ccnnc2)cc1F` [Example 956, 5-chloro-4-(4-chloro-3-fluoro-2-pyridazin-4-ylphenoxy)-2-fluoro-N-1,3,4-thiadiazol-2-ylbenzenesulfonamide], for which the IC50 is 130 nM.

Take `N#Cc1cc(S(=O)(=O)Nc2ncns2)ccc1Oc1cc(OC(F)(F)F)ccc1-c1ccnnc1` [Example 957, 3-cyano-4-[2-pyridazin-4-yl-5-(trifluoromethoxy)phenoxy]-N-1,2,4-thiadiazol-5-ylbenzenesulfonamide]: the IC50 was 22 nM.

For `N#Cc1cc(S(=O)(=O)Nc2ncns2)ccc1Oc1cc(F)c(OC(F)(F)F)cc1-c1ccnnc1` [Example 958, 3-cyano-4-[5-fluoro-2-pyridazin-4-yl-4-(trifluoromethoxy)phenoxy]-N-1,2,4-thiadiazol-5-ylbenzenesulfonamide], the IC50 is 5.9 nM.

`N#Cc1cc(S(=O)(=O)Nc2ncns2)ccc1Oc1ccc(C(F)(F)F)cc1-c1ccncc1` [Example 960, 3-cyano-4-[2-pyridin-4-yl-4-(trifluoromethyl)phenoxy]-N-1,2,4-thiadiazol-5-ylbenzenesulfonamide]: the IC50 is 4 nM.

As for `Cc1nocc1-c1cc(Cl)ccc1Oc1ccc(S(=O)(=O)Nc2ncns2)cc1C#N` [Example 961, 4-[4-chloro-2-(3-methylisoxazol-4-yl)phenoxy]-3-cyano-N-1,2,4-thiadiazol-5-ylbenzenesulfonamide], the IC50 was 7.9 nM.

For `N#Cc1cc(S(=O)(=O)Nc2cscn2)ccc1Oc1ccc(OC(F)(F)F)cc1-c1ccnn1C1CNC1` [Example 962, 4-[2-(1-azetidin-3-yl-1H-pyrazol-5-yl)-4-(trifluoromethoxy)phenoxy]-3-cyano-N-1,3-thiazol-4-ylbenzenesulfonamide], the IC50 is 9.9 nM.

With `O=S(=O)(Nc1nncs1)c1cc(Cl)c(Oc2cc(F)c(OC(F)(F)F)cc2-c2ccnnc2)cc1F` [Example 963, 5-chloro-2-fluoro-4-[5-fluoro-2-pyridazin-4-yl-4-(trifluoromethoxy)phenoxy]-N-1,3,4-thiadiazol-2-ylbenzenesulfonamide], the IC50 was 15 nM.

As to `N#Cc1cc(S(=O)(=O)Nc2ncns2)ccc1Oc1cc(OC(F)(F)F)c(F)cc1-c1ccnnc1` [Example 964, 3-cyano-4-[4-fluoro-2-pyridazin-4-yl-5-(trifluoromethoxy)phenoxy]-N-1,2,4-thiadiazol-5-ylbenzenesulfonamide], the IC50 is 21 nM.

Take `O=S(=O)(Nc1nncs1)c1cc(Cl)c(Oc2cc(OC(F)(F)F)c(F)cc2-c2ccnnc2)cc1F` [Example 965, 5-chloro-2-fluoro-4-[4-fluoro-2-pyridazin-4-yl-5-(trifluoromethoxy)phenoxy]-N-1,3,4-thiadiazol-2-ylbenzenesulfonamide]: the IC50 was 25 nM.

Turning to `O=S(=O)(Nc1nncs1)c1cc(Cl)c(Oc2cc(OC(F)(F)F)ccc2-c2ccnnc2)cc1F` [Example 966, 5-chloro-2-fluoro-4-[2-pyridazin-4-yl-5-(trifluoromethoxy)phenoxy]-N-1,3,4-thiadiazol-2-ylbenzenesulfonamide], the IC50 is 40 nM.

Consider `N#Cc1cc(S(=O)(=O)Nc2ncns2)ccc1Oc1ccc(Cl)cc1-c1cnco1` [Example 967, 4-[4-chloro-2-(1,3-oxazol-5-yl)phenoxy]-3-cyano-N-1,2,4-thiadiazol-5-ylbenzenesulfonamide], for which the IC50 was 27 nM.

As for `CN1CC(n2nccc2-c2cc(Cl)ccc2Oc2ncc(S(=O)(=O)Nc3ncns3)cc2Cl)C1` [Example 968, 5-chloro-6-{4-chloro-2-[1-(1-methylazetidin-3-yl)-1H-pyrazol-5-yl]phenoxy}-N-1,2,4-thiadiazol-5-ylpyridine-3-sulfonamide], the IC50 was 2000 nM.

In the case of `N#Cc1cc(S(=O)(=O)Nc2cscn2)ccc1Oc1ccc(C(F)(F)F)cc1-c1ccnn1C1CNC1` [Example 969, 4-[2-(1-azetidin-3-yl-1H-pyrazol-5-yl)-4-(trifluoromethyl)phenoxy]-3-cyano-N-1,3-thiazol-4-ylbenzenesulfonamide], the IC50 is 4.1 nM.

As for `O=S(=O)(Nc1ncns1)c1cc(F)c(Oc2ccc(Cl)cc2-c2cnco2)cc1F` [Example 970, 4-[4-chloro-2-(1,3-oxazol-5-yl)phenoxy]-2,5-difluoro-N-1,2,4-thiadiazol-5-ylbenzenesulfonamide], the IC50 is 17 nM.

On to `N#Cc1cc(S(=O)(=O)Nc2ncns2)ccc1Oc1cc(Cl)c(Cl)cc1-c1ccnnc1` [Example 971, 3-cyano-4-(4,5-dichloro-2-pyridazin-4-ylphenoxy)-N-1,2,4-thiadiazol-5-ylbenzenesulfonamide], for which the IC50 was 8.5 nM.

For the molecule `Nc1cc(-c2cc(F)ccc2Oc2cc(F)c(S(=O)(=O)Nc3ccncn3)cc2Cl)ccn1` [Example 972, 4-[2-(2-aminopyridin-4-yl)-4-fluorophenoxy]-5-chloro-2-fluoro-N-pyrimidin-4-ylbenzenesulfonamide], the IC50 is 25 nM.

For `Nc1n[nH]cc1-c1cc(Cl)ccc1Oc1ccc(S(=O)(=O)Nc2ccncn2)cc1Cl` [Example 973, 4-[2-(3-amino-1H-pyrazol-4-yl)-4-chlorophenoxy]-3-chloro-N-pyrimidin-4-ylbenzenesulfonamide], the IC50 is 25 nM.

Consider `O=S(=O)(Nc1ncns1)c1cnc(Oc2ccc(C(F)(F)F)cc2-c2ccnnc2)c(Cl)c1` [Example 974, 5-chloro-6-[2-pyridazin-4-yl-4-(trifluoromethyl)phenoxy]-N-1,2,4-thiadiazol-5-ylpyridine-3-sulfonamide], for which the IC50 is 74 nM.

On to `CCN1CC(n2nccc2-c2cc(Cl)ccc2Oc2cc(F)c(S(=O)(=O)Nc3ncns3)cc2F)C1` [Example 975, 4-{4-chloro-2-[1-(1-ethylazetidin-3-yl)-1H-pyrazol-5-yl]phenoxy}-2,5-difluoro-N-1,2,4-thiadiazol-5-ylbenzenesulfonamide], for which the IC50 was 1.5 nM.

As for `O=S(=O)(Nc1ncns1)c1ccc(Oc2ccc(C(F)(F)F)cc2-c2ccnnc2)c(C(F)(F)F)c1` [Example 976, 4-[2-pyridazin-4-yl-4-(trifluoromethyl)phenoxy]-N-1,2,4-thiadiazol-5-yl-3-(trifluoromethyl)benzenesulfonamide], the IC50 is 2.5 nM.

With `Cc1cc(S(=O)(=O)Nc2ncns2)c(F)cc1Oc1ccc(C(F)(F)F)cc1-c1ccnnc1` [Example 978, 2-fluoro-5-methyl-4-[2-pyridazin-4-yl-4-(trifluoromethyl)phenoxy]-N-1,2,4-thiadiazol-5-ylbenzenesulfonamide], the IC50 is 4.6 nM.

As to `N#Cc1cc(S(=O)(=O)Nc2ncns2)ccc1Oc1ccc(C(F)(F)F)cc1-c1ccc[n+]([O-])c1` [Example 979, 3-cyano-4-[2-(1-oxidopyridin-3-yl)-4-(trifluoromethyl)phenoxy]-N-1,2,4-thiadiazol-5-ylbenzenesulfonamide], the IC50 was 110 nM.

For `Cc1nn(C(C)(C)C)cc1-c1cc(Cl)ccc1Oc1cc(F)c(S(=O)(=O)Nc2nncs2)cc1Cl` [Example 982, 4-[2-(1-tert-butyl-3-methyl-1H-pyrazol-4-yl)-4-chlorophenoxy]-5-chloro-2-fluoro-N-1,3,4-thiadiazol-2-ylbenzenesulfonamide], the IC50 is above 300 nM.
